“Also recorded” adds a separate entry of the source. Where two headings read alike, the source gives them in different places.
Experiments:
[1] = biological target: T1, equine serum BChE [EqBChE] (Equus caballus, UniProt P81908); experiment: biochemical; settings: Ellman method, read-out: IC50(nM) ± SD BChE (EqBChE)
T1 construct: equine serum BChE [EqBChE]; from tissue; host or cells: equine serum
Method: (§1) The anticholinesterase activity was determined using Ellman’s method, adapted as follows. […] Subsequently, 60 μL of 5,5′-dithiobis(2-nitrobenzoic acid) (DTNB, 1.1 mM) and 30 μL of enzyme solution (electric eel AChE [EeAChE], human AChE [hAChE], or equine serum BChE [EqBChE], 0.20 U/mL) containing 1 mg/mL bovine serum albumin (BSA) were added. […] Enzyme activity was calculated as the percentage relative to untreated controls, subtracting the blank reference. IC50 values were derived via non-linear regression analysis of dose–response curves (Figure S4) using GraphPad Prism v7.0.

hH3R = biological target: T2, hH3R (Homo sapiens, UniProt Q9Y5N1); experiment: H3R radioligand displacement assay ([3H]-N-α-methylhistamine); assay type: binding; settings: 95% confidence interval in brackets; HEK-293 membranes
T2 construct: expressed in transfected cells; host or cells: HEK-293
Method: HEK-293 cells (human embryonic kidney cells) stably expressing hH3R were washed and harvested in PBS buffer (phosphate-buffered saline). […] The cell membrane homogenate was centrifuged (20,000× g, 20 min, 4 °C), and the resulting pellet was resuspended in binding buffer and stored at −80 °C until use.
Prior to experiments, the cell membranes were thawed, homogenized by sonication at 4 °C, and kept in ice-cold binding buffer. Crude membrane extracts (20 μg/well in a final volume of 0.2 mL binding buffer) were incubated with [^3H]-N-α-methylhistamine (2 nM; 78.3 Ci/mmol) and varying concentrations of test compounds. Assays were performed in duplicate, with compound concentrations ranging from 0.01 nM to 100 μM. Incubations proceeded for 90 min at room temperature under continuous agitation.
Bound radioligand was separated from free radioligand by filtration through GF/B filters pretreated with 0.3% (w/v) polyethyleneimine, using a cell harvester. Radioactivity was quantified by liquid scintillation counting. Data were analyzed using GraphPad Prism v8 (San Diego, CA, USA) software, employing non-linear regression analysis.

hMAO-B = biological target: T3, hMAO-B (Homo sapiens, UniProt P27338); experiment: biochemical; assay type: biochemical; settings: test concentration of 1 µM; read-out: Percentage of MAO-B inhibition ± SEM
T3 construct: purchased Sigma-Aldrich, Gillingham, UK
T3 sequence (P27338 1-520): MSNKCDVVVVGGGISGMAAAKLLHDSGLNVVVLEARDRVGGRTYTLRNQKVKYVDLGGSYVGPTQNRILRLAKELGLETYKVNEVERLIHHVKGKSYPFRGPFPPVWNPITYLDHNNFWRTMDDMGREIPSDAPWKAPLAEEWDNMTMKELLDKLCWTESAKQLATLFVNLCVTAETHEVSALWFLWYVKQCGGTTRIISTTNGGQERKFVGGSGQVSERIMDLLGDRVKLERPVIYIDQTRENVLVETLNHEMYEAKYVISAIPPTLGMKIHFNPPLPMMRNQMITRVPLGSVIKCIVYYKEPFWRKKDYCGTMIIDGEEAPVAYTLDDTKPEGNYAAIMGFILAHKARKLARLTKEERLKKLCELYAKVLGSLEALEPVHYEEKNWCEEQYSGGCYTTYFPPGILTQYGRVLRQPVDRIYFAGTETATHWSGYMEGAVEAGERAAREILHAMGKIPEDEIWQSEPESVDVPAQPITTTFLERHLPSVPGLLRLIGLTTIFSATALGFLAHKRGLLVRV
Method: (§2) The activity of human recombinant membrane-bound monoamine oxidase isoforms A and B (MAO-A/B) (Sigma-Aldrich, Gillingham, UK) in 50 mM potassium phosphate buffer (pH 7.5) was determined by measuring hydrogen peroxide production coupled to the fluorescent dye Amplex Red (Sigma-Aldrich, UK) at a final concentration of 50 μM, in the presence of horseradish peroxidase (HRP, 2.5 U/mL). This coupling reaction generates the fluorescent product resorufin, which was quantified at 30 °C using a fluorescence plate reader.
(§3) Reactions were initiated by adding the substrate and dye after a 30 min preincubation of the inhibitor with the enzyme. Data were analyzed using a three-parameter equation in GraphPad Prism 7.0 (San Diego, USA). Each reported value represents the mean of at least two independent determinations.

[2] = biological target: electric eel AChE [EeAChE] (Electrophorus electricus, UniProt O42275); experiment: biochemical; assay type: biochemical; settings: for IC50: Electric eel AChE, Ellman method, read-out: IC50(nM) ± SD AChE (EeAChE); for SI: Selectivity Index = EqBChE IC50/EeAChE IC50
Method: as §1

hMAO-A = biological target: T4, hMAO-A (Homo sapiens, UniProt P21397); experiment: MAO-A inhibition, fluorometric Amplex Red assay; assay type: biochemical; settings: test concentration of 1 µM; read-out: Percentage of MAO-A inhibition ± SEM
T4 construct: purchased Sigma-Aldrich, Gillingham, UK
T4 sequence (P21397 1-527): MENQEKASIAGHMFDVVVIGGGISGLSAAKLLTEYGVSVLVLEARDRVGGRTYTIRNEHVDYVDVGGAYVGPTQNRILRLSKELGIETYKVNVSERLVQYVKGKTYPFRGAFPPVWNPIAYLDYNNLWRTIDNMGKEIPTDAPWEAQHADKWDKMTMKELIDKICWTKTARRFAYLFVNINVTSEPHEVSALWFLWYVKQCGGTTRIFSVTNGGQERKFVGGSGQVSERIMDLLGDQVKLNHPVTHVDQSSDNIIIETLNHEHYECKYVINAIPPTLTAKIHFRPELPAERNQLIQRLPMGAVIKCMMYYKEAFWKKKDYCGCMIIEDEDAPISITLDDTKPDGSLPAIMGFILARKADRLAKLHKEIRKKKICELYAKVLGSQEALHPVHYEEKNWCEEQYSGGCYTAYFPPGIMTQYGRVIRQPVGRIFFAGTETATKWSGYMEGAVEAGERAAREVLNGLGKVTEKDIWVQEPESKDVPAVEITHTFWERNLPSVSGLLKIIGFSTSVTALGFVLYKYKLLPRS
Method: as §2, with “reader. […].” for “reader.”
as §3

[3] = biological target: electric eel acetylcholinesterase (EeAChE) (Electrophorus electricus, UniProt O42275); experiment: Enzymatic kinetic study, EeAChE; assay type: biochemical; settings: AChE
Method: (§4) The enzymatic kinetics of cholinesterase inhibition were determined according to an adapted Ellman’s method. All of the solutions were prepared at 20 °C in 0.02 M Tris-HCl buffer (pH 7.5; ionic strength ~0.02 M), stock solutions of test compounds were prepared in DMSO:EtOH (7:3) mixture (20 mM), and the experiment was conducted in triplicate. To a flat-bottom 96-well transparent plate (path length of 0.6 cm) were added 150 μL of treatment solutions with inhibitors 1a, 1h, and 1j at two different concentrations (Table S1) distributed in eight sets of triplicate each. Eight sets of untreated triplicates were used as a negative control. Following, there were added 60 μL of 5,5′-Dithiobis(2-nitrobenzoic acid) (DTNB, Ellman’s reagent) at 1.1 mM and 30 μL of electric eel acetylcholinesterase (EeAChE) or equine serum butyrylcholinesterase (EqBuChE) at 0.20 U/mL in the presence of 1 mg/mL bovine serum albumin (BSA). […] Ki, Ki’ (competitive and noncompetitive inhibition constants, respectively), Km (Michaelis-Menten constant), and Vmax values were calculated with Graphpad Prism v7.0 using the non-linear regression models for enzyme kinetics inhibition and enzyme kinetics–substrate vs. velocity.

[4] = Cytotoxicity (neurotoxicity) MTT assay in SH-SY5Y; assay type: cell-based; settings: human, SH-SY5Y neuroblastoma cells
Method: (§5) The immortalized human neuroblastoma cell line (SH-SY5Y–ATCC: CRL-2226; BCRJ:0223) was used to evaluate cytotoxicity. The cell line was cultured in Dulbecco’s Modified Eagle’s Medium and F12 in a 1:1 ratio (DMEM:F12; Sigma-Aldrich code 0697, Brazil) supplemented with 10% fetal bovine serum (FBS; Sigma-Aldrich code F2442, Brazil) and 1% streptomycin/penicillin (10,000 U/mL and 10,000 μg/mL, respectively; Nova Biotecnologia code BR30110-01, Cotia, SP, Brazil) and incubated at 37 °C with 5% CO2. The culture medium was replaced every 48 h, until the cells reached semi-confluence (≥70%). Cell passage was carried out with the aid of trypsin-EDTA/0.25% solution (Nova Biotecnologia, Brazil) and divided between 5 or 8 mL culture volumes depending on the respective bottles (25 or 75 cm^2) used.
(§6) The in vitro cytotoxicity assay evaluated cell viability using the [3-(4,5-dimethylthiazol-2yl)-2,5-diphenyl tetrazolium] bromide (MTT) reduction assay. Cells were seeded at an initial density of 5.0 × 10^4 cells/well in 96-well plates in a volume of 200 µL. […] In the next step, the culture medium was replaced by the sample solution previously described (Section 3.4.2). After 24 h exposure, the medium was replaced with 100 μL of MTT in phosphate-buffer saline (PBS), pH 7.4, at a concentration of 0.5 mg.mL^−1/well and the plates were incubated for an additional 3 h. Then, the MTT solution was removed, and 100 μL of DMSO was added to solubilize the formazan crystals. The cell viability was measured by absorbance at 562 nm using a Microplate Absorbance Reader (Kasuaki, Brazil). All concentrations tested were evaluated in nine replicates (n = 9). The variation in results was observed using ANOVA followed by Tukey’s test for multiple comparisons through GraphPad Prism v5^TM with a significance level of p < 0.05.

[5] = system: SH-SY5Y neuroblastoma cells; experiment: Cytotoxicity (neurotoxicity) MTT assay in SH-SY5Y; assay type: cell-based; settings: up to 50 µM
Method: as §5, §6

[6] = system: H2O2-damaged SH-SY5Y cells; experiment: In vitro neuroprotection against H2O2 in SH-SY5Y (MTT); settings: Homo sapiens, SH-SY5Y, read-out: Cell viability (% of control)
Method: For the neuroprotection assay, the cells previously cultured (Section 3.4.1) were seeded in 96-well plates at a density of 5 × 10^4 cells/well in a volume of 200 µL. The plates were incubated at 37 °C containing 5% CO2 for 24 h. After 24 h, the medium was replaced with the test solutions. […] Finally, the test solutions were removed, the cells were washed with PBS pH 7.4, and the H2O2 solution was added and maintained in contact with the cells for 24 h. After 24 h exposure, the neuroprotective capacity was assessed through cell viability using the MTT assay protocol previously described in Section 3.4.3 [52, 53].

human AChE [hAChE] = human AChE [hAChE] (Homo sapiens, UniProt P22303); experiment: biochemical
Method: as §1

[7] = biological target: T5, equine serum butyrylcholinesterase (EqBuChE) (Equus caballus, UniProt P81908); experiment: Enzymatic kinetic study, EqBChE; assay type: biochemical; settings: BChE
T5 construct: equine serum BChE [EqBChE]; from tissue; host or cells: equine serum
Method: as §4

[8] = biological target: T1, equine serum BChE [EqBChE]; design: method as in PMID 30727776; settings: Figure 1; ref [22]; read-out: EqBChE (IC50 of prototype); cited from earlier work
[9] = system: SH-SY5Y neuroblastoma cells; settings: 50 μM, ref [28],[29]; cited from earlier work
[10] = competitive inhibition constant (Table S2), read-out: Ki (nM) ± SD
[11] = global non-linear regression, mixed inhibition (Table S3)

Sequence of electric eel acetylcholinesterase (EeAChE) (O42275 24-633): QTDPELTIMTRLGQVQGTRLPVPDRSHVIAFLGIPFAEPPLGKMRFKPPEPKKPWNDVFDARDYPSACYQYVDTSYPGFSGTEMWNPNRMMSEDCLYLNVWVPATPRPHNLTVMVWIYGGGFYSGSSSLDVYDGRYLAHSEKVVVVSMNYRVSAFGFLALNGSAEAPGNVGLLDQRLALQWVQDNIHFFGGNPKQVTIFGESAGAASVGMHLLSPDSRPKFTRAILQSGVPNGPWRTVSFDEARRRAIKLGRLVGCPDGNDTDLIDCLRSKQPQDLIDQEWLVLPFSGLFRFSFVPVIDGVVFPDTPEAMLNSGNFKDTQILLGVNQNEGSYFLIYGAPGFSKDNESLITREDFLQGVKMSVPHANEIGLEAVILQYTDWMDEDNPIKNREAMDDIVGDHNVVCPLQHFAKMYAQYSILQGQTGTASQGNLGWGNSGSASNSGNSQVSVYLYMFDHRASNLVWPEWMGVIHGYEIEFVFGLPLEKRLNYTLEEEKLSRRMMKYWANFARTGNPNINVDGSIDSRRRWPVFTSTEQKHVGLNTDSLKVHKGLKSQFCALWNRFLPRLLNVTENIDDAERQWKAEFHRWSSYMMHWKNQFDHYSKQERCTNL
Sequence of electric eel AChE [EeAChE] (O42275 24-633): as above
T5 sequence (P81908 whole entry): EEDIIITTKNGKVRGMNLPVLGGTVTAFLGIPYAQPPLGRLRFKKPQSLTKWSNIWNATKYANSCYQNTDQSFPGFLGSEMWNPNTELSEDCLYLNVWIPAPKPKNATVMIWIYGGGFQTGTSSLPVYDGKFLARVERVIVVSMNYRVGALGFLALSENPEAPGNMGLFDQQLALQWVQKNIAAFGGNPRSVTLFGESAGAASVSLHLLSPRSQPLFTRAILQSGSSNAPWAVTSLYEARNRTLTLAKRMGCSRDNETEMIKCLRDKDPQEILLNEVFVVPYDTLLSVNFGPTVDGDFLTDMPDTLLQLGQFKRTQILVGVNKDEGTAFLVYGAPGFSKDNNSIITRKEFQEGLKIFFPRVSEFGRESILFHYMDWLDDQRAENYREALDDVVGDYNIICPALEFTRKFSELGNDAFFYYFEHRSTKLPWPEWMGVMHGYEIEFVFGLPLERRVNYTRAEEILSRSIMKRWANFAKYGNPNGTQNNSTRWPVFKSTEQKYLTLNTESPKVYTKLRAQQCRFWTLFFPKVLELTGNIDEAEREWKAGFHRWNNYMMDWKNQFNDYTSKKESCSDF
T1 sequence (P81908 whole entry): as above
Sequence of human AChE [hAChE] (P22303 32-614): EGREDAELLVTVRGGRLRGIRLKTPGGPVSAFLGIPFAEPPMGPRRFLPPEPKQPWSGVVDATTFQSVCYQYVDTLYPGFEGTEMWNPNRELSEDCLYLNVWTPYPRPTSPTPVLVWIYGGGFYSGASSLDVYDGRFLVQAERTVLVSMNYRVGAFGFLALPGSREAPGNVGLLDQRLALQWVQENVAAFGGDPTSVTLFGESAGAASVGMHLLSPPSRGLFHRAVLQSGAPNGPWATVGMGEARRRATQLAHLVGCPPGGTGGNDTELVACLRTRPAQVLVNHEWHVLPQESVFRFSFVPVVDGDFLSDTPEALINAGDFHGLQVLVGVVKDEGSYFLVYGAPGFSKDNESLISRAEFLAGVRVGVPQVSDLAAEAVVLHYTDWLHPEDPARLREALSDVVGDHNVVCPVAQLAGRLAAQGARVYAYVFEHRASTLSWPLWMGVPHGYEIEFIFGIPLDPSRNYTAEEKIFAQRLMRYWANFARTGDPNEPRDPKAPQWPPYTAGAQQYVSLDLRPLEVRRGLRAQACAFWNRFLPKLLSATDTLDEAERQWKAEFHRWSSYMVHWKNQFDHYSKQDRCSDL
T2 sequence (Q9Y5N1 whole entry): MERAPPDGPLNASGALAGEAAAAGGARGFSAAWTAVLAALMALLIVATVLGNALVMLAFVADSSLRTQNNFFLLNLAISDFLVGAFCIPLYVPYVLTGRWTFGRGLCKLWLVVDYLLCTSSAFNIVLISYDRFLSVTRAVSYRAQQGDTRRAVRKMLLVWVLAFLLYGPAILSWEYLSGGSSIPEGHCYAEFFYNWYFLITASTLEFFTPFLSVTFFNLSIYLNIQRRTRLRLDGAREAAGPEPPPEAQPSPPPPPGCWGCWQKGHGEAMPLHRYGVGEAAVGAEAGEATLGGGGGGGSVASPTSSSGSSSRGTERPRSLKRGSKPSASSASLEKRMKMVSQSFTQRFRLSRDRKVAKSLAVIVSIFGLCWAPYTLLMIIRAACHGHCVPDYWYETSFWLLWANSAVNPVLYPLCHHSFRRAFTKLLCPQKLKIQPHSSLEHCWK

Q: What does the source list for O=c1oc2cc(OCCCN3CCCCC3)ccc2cc1-c1cn(-c2ccccc2)nn1 [Compound 1b, 3-(1-Phenyl-1H-1,2,3-triazol-4-yl)-7-(3-(piperidin-1-yl)propoxy)-2H-chromen-2-one]?
A: IC50 [1]: 3970 ± 94 nM; Ki (hH3R): 32 nM; inhibition at 1 µM (hMAO-B): 11.4 ± 1.9%; IC50 [2]: 1330 ± 45 nM; SI [2]: 3; inhibition at 1 µM (hMAO-A): 6.4 ± 0.5%

Q: What does the source list for COc1cccc(Cn2cc(-c3cc4ccc(OCCN5CCCCC5)cc4oc3=O)nn2)c1 [Compound 1j, 3-(1-(3-Methoxybenzyl)-1H-1,2,3-triazol-4-yl)-7-(2-(piperidin-1-yl)ethoxy)-2H-chromen-2-one]?
A: Ki [3, 10]: 0.508 ± 0.0001 nM; Ki ([3]; corrected for tight-binding using the Morrison equation (Table S3), read-out: Ki ± SE (95% CI)): 0.637 nM; α ± SE (95% CI) [3, 11]: 4.248 ± 1.415; Vmax ± SD ([3]; inhibitor 0.003 μM): 5.21 ± 0.0656 1 × 10^3 nM/min; Vmax ± SD ([3]; inhibitor 0.005 μM): 3.90 ± 0.1517 1 × 10^3 nM/min; viability at 24 h, 12.5 µM ([4]; 12.5 μM, 24 h, MTT, read-out: Cell viability (% of control)): 71%; viability at 24 h, 25 µM ([4]; 25.0 μM, 24 h, MTT, read-out: Cell viability (% of control)): 70%; viability at 24 h, 50 µM ([4]; 50.0 μM, 24 h, MTT, read-out: Cell viability (% of control)): 63%; viability at 24 h ([4]; up to 25 μM, read-out: cell viability): ≥ 70%; neurotoxicity [5]: non-neurotoxic; also recorded: neurotoxicity in high concentrations; viability at 12.5 µM [6]: 68%; IC50 [1]: 2880 ± 120 nM; IC50 (human AChE [hAChE]; Human AChE, Ellman method, read-out: IC50(nM) ± SD AChE (hAChE) (converted)): 12.5 nM; SI (human AChE [hAChE]; SI = EqBChE IC50/hAChE): 222; IC50 [2]: 4.16 ± 0.11 nM; SI [2]: 686; Ki [7, 10]: 615 ± 0.58 nM; Ki ([7]; free enzyme (Table S3), read-out: Ki ± SE (95% CI)): 944 ± 200 nM; α ± SE (95% CI) [7, 11]: 3.349 ± 1.984; Vmax ± SD ([7]; inhibitor 1.9 μM): 5.97 ± 0.1562 1 × 10^3 nM/min; Vmax ± SD ([7]; inhibitor 3.9 μM): 4.12 ± 0.2257 1 × 10^3 nM/min

Q: Which IC50 [8] does the source give for CN(C)c1ccc(-c2cc3ccc(OCCN4CCCCC4)cc3oc2=O)cc1 [Compound 2] here?
A: Its IC50 is 6370 nM.

Q: With Nc1c2c(nc3ccccc13)CCCC2 [tacrine] as the molecule, how does the cell viability [9] read?
A: The cell viability was 97%.

Source: PMC12472947 (Pharmaceuticals, 2025)
